From patent US9790496B2, “Microrna compounds and methods for modulating MIR-21 activity” (Regulus Therapeutics, Inc., priority 2011, dated 2017)
Values joined by “and” are separate entries in the source; they are usually repeats but may differ in a detail not shown here. Equal entries are not always repeated.

Assays:
Format in all cases: in vivo, mouse
[1] = tested on: ischemia reperfusion injury/nephrectomy (IR/Nx) model; experiment: Ischemia reperfusion injury/nephrectomy (IR/Nx) model: urinary albumin to creatinine ratio
Description: An ischemia reperfusion injury/nephrectomy (IR/Nx) model is created in the mouse through temporary unilateral clamping of an artery in one kidney, which leads to tubule damage, inflammation, and fibrosis, followed by removal of the second kidney at a later timepoint. In this model, the acute kidney dysfunction phase is useful to test candidate agents for the treatment of acute kidney injury (i.e. up to about the first 5 days), and the later phases of kidney dysfunction are useful to model chronic fibrosis (i.e. after about the first 5 days).
Anti-miR-21 compounds were tested in the IR/Nx model. 25109, a 6-base mismatch to miR-21, was used as a control compound ([…]; where nucleosides not followed by a subscript indicate β-deoxynucleosides; nucleosides followed by a subscript “E” indicate 2′-MOE nucleosides; nucleosides followed by a subscript “S” indicate S-cEt nucleosides; and all internucleoside linkages are phosphorothioate internucleoside linkages).
Unilateral IR was induced for a period of 30 minutes. Treatment groups were as follows: sham IR procedure; IR with PBS administered subcutaneously; IR with mismatched control 25109 administered subcutaneously at a dose of 20 mg/kg; IR with anti-miR-21 compound 25070 administered subcutaneously at a dose of 20 mg/kg; and IR with anti-miR-21 compound 25923 administered subcutaneously at a dose of 20 mg/kg. PBS or anti-miR was administered on days 2, 3, 4, and 8 following IR. On day 8, the healthy kidney was removed by nephrectomy from each animal, and animals were sacrificed on day 9. Just prior to sacrifice, urine was collected by direct bladder puncture.
Urinary albumin to creatinine ratio was measured in the urine from each mouse. […] The geometric mean of the albumin to creatinine ratio in each group of mice was 16 μgAlb/mgCr (nephrectomy-only control), 127 μgAlb/mgCr (IR/Nx, PBS control), 140 μgAlb/mgCr (IR/Nx, 25109 control), 40 μgAlb/mgCr (IR/Nx, 25070), and 31 μgAlb/mgCr (IR/Nx, 25923). Blood urea nitrogen and serum creatinine levels were similar across all IR/Nx mice, and were elevated relative to nephrectomy-only control mice (data not shown).

[2] = tested on: collagen 1A1 and collagen 3A1 expression in kidney, ischemia reperfusion injury (IRI) model; experiment: Unilateral ischemia reperfusion injury (IRI) model: kidney collagen 1A1 and collagen 3A1 expression
Method: A model of ischemia reperfusion injury (IRI) is created in the mouse through unilateral or bilateral clamping of kidney arteries, which leads to tubule damage, inflammation, and fibrosis. Kidney dysfunction can occur either early (<5 days) or late (>7 days) in this model, with the early time points useful to test candidate agents for the treatment of acute kidney injury, and the later time points useful to model chronic fibrosis.
Anti-miR-21 compounds were tested in the unilateral IRI model. Unilateral IRI was induced for a period of 30 minutes. Treatment groups were as follows: sham IRI procedure; IRI with PBS administered subcutaneously; IRI with anti-miR-21 compound 25070 administered intraperitoneally at a dose of 20 mg/kg; the 2′-fluoro/2′-MOE modified anti-miR-21 25919 administered intraperitoneally at a dose of 20 mg/kg; and a 2′-fluoro/2′ modified mismatch anti-miR-21 (having three mismatches to the sequence of miR-21) 25319 administered intraperitoneally at a dose of 20 mg/kg. PBS or anti-miR compound was administered on days 5, 6, and 7 following IRI, and animals were sacrificed 14 days after IRI. As anti-miR compound is administered 5 days following the injury to the kidney, or later, when fibrosis has already occurred to some extent, this treatment regimen is considered a therapeutic regimen, rather than a prophylactic regimen.
Kidney tissue was collected for analysis of collagen 1A1 and collagen 3A1 expression (shown in Table O), and collagen area fraction (shown in Table P).
A similar study was performed with the same treatment groups and additional days of treatment. In this study, treatments were administered intraperitoneally at days 5, 6, 7, 14, and 21 following the IRI procedure Animals were sacrificed on Day 27, and kidney tissue was collected for analysis of collagen 1A1 and collagen 3A1 expression, as well as collagen area fraction.
In order to assess the flexibility of administration of the anti-miR-21 compound 25070, the activity of the compound in the 14 day study above, where anti-miR-21 was administered at […] following the IRI procedure, to a different 14 day study where anti-miR-21 was administered intraperitoneally at days 3, 5, and 7 following the IRI procedure.

[3] = tested on: collagen 1A1 and collagen 3A1 expression in kidney, ischemia reperfusion injury (IRI) model; experiment: as above; conditions: 14 day study, dosing Day 5, 6, 7, fold change relative to sham
[4] = IRI, 14 day study, dosing Day 3, 5, 7 intraperitoneally, fold change relative to sham
[5] = unilateral IRI, 20 mg/kg intraperitoneally on days 5, 6, 7, sacrifice 14 days after IRI, 20 mg/kg
[6] = unilateral IRI, intraperitoneally on days 5, 6, 7, 14, 21, sacrifice Day 27

AECSATCSAGTCSTGAUSAAGCSTAE (ACATCAGTCTGATAAGCTA; modified nucleosides coded in name, code key not given here) [Compound 25070]
reduction in urinary albumin to creatinine ratio (in words) ([1]; s.c. 20 mg/kg on days 2, 3, 4, 8): statistically significant reductions | geometric mean of the urinary albumin to creatinine ratio ([1]; s.c. 20 mg/kg on days 2, 3, 4, 8, urine day 9, PBS control 127, nephrectomy-only 16): 40 μgAlb/mgCr | reduction of collagen 1A1 or collagen 3A1 expression relative to sham (in words) ([2]; IRI, 14 day studies, two dosing schedules compared (days 3, 5, 7 i.p.)): statistically significant reduction of collagen expression with either dosing schedule | Collagen 1A1 (Normalized Expression), individual animal [2, 4]: 37.5 and 21.9 and 35.3 and 26.0 and 24.9 and 16.8 and 30.8 and 34.3 and 36.8 and 9.4 and 28.0 and 24.6 | Collagen 3A1 (Normalized Expression), individual animal [2, 4]: 35.3 and 23.6 and 32.1 and 25.1 and 31.3 and 18.6 and 30.3 and 37.6 and 40.0 and 9.5 and 23.2 and 28.7 | Collagen 1A1 (Normalized Expression), individual animal [2, 5]: 81.7 and 57.4 and 37.9 and 55.3 and 22.3 and 52.4 and 53.0 and 41.5 | Collagen 3A1 (Normalized Expression), individual animal [2, 5]: 57.8 and 18.1 and 39.3 and 36.0 and 20.6 and 38.6 and 33.4 and 29.7 | Collagen 1A1 (Normalized Expression), individual animal [2, 6]: 26.4 and 37.4 and 41.9 and 36.8 and 14.1 and 27.7 and 29.4 and 37.6 | Collagen 3A1 (Normalized Expression), individual animal [2, 6]: 16.4 and 27.0 and 28.5 and 19.6 and 11.3 and 19.3 and 21.4 and 23.1 | Collagen 1A1 (Normalized Expression), individual animal [3]: 21.7 and 22.8 and 15.8 and 27.6 and 27.1 and 29.3 and 10.8 and 21.5 and 29.9 and 35.0 and 28.3 and 24.2 | Collagen 3A1 (Normalized Expression), individual animal [3]: 24.9 and 26.3 and 13.6 and 25.4 and 32.7 and 29.9 and 9.7 and 22.2 and 33.2 and 35.4 and 32.3 and 28.9
